We go through seven molecules from patent publication US5691310A, “Methods of treatment using proANF peptides” (priority 1995, dated 1997).

In assay [1] the test system is particulate guanylate cyclase. The assay can be described thus: cyclic GMP / particulate guanylate cyclase activation in cultured smooth muscle cells and porcine aorta. Type of assay: cell-based. To be noted: cultured smooth muscle cells.
Assay [2] has as its system renal medullary Na+-K+-ATPase. The assay can be described thus: inhibition of renal medullary Na+-K+-ATPase activity. It is filed as biochemical. To be noted: 10^-11 M.
The test system of assay [3] is Munich-Wistar rats. Description: rat clearance model (diuresis and salt excretion). It is filed as in vivo. Here is the method: The same three peptides and ANF from Example I are tested using the rat clearance model. Six control rats and six experimental Munich-Wistar rats, each weighing 150-200 grams, are used for each peptide, with catheters being placed in both jugular veins and in the femoral artery. The ureters are cannulated for simultaneous urine collections with femoral artery blood collections.
After inserting the catheters, a stabilization of one hour is allowed. A 10 μg/kg bolus of each of the respective human sequences of the peptides is given via the jugular vein to six experimental rats followed by a sustaining infusion of 0.1 μg/kg/min for 60 minutes. Blood and urine samples are collected at 20 minute intervals during this 60 minute infusion. In both the control and experimental animals, hematocrits and plasma sodium values remained at the same levels pre- and post-infusion while blood pressure decreased with each of these peptides (see Attachment B).

Assay [4] deals with healthy human subjects. Description: infusion into healthy human subjects. Type of assay: in vivo. To be noted: healthy humans; for urine volume / urine flow (in words): 100 ng/kg body wt per minute for 1 hour i.v.; for sodium excretion compared to baseline (in words): 100 ng/kg body wt per minute for 60 minutes; for systolic and diastolic blood pressures: 100 ng/kg/min i.v. for 60 minutes. Here is the method:
Infusion of these peptides into healthy human subjects was performed as follows: Human pro-ANF 1-30, pro-ANF 31-67, and pro-ANF 79-98, and hANF (i.e., pro-ANF […], were synthesized by Peninsula Laboratories (Belmont, Calif.). High pressure liquid chromatography (HPLC) analysis was performed on a sample of each of the four peptides to ensure purity. The peptides were dissolved in a sterile 0.9% saline solution to a concentration of 100 μg/ml and dispensed in 2 and 5 ml aliquots into sealed sterile vials. At the time of dispensing, randomly selected vials were tested for pyrogens and sterility. Prior to labeling the vials, the actual peptide content of the dispensed solution were determined by direct radioimmunoassay to account for any possible absorption of the respective peptides to the walls of the vials. All vials were then stored at -80° C. until thawed for individual study.
Normal healthy subjects were chosen on the basis of age (between 20 and 50 years), physical examination and biochemical screenings. The subjects consumed their normal diets prior to testing. The subjects fasted overnight and were tested in the morning in the seated position. Intravenous catheters were placed bilaterally for the administration of pro-hANF 1-30, pro-hANF 31-67, pro-hANF 79-98 and hANF [pro-hANF 99-126] and for blood sampling. After completion of a 45-minute equilibration period, there were three 60-minute phases of the study: baseline, experimental infusion (60 minutes) and recovery (3 hours). The baseline phase consisted of two 30 minute urine collection periods, the experimental phase consisted of three 20 minute urine and plasma collection periods, and the recovery phase consisted of two 30 minute urine and plasma collection periods each hour for three hours post-infusion. Urine output was replaced on a milliliter per milliliter basis throughout the study by administering oral water or orange juice. Urine samples were obtained by voiding at the designated collection periods.
The 36 subjects were divided into 6 groups. One group (i.e., the control group) received a placebo infusion of 0.9% sodium chloride during the experimental infusion phase. […] The four remaining groups of six subjects each received human pro-hANF 1-30, pro-hANF 31-67, pro-hANF 79-98 and hANF. The four groups received the peptides by continuous infusion at the rate of 0.1 μg/kg per minute. The volume administered per hour during the experimental infusion phase was 10 ml for all four peptides and the placebo. All infusions were given by a constant-rate infusion pump, with the final concentrations of prohANFs adjusted for the subjects' body weight. The subjects heart rate and cuff blood pressure were taken at 5 minute intervals throughout the study. The excreted urine was analyzed for sodium concentration.

Assay [5] relates to porcine aorta. The assay can be described thus: vasodilation of porcine aortic strips preconstricted with 0.3 micromolar phenylephrine. The arrangement: species or system pig. To be noted: for increase in cyclic GMP levels over baseline levels: associated with vasodilation of porcine aorta; for vasodilation: porcine aorta. Here is the method: 30 Kg pigs are sacrificed, and aortic strips are harvested. The strips are attached to F-60 transducer (Narco-BioSystems, Houston, Tex.) and attached to a physiography (Narco-BioSystems) while being submerged in a muscle tissue bath comprising a Krebs Ringer solution at 37° C., with 95% 02 -5% CO2, bubbled through the bath. Percentage vasodilation is measured versus time (as reported in FIG. 1) after preconstriction with 0.3 micromolar phenylephrine.

Assay [6] deals with human subjects with class II New York Heart Association congestive heart failure. The assay can be described thus: infusion into human subjects with congestive heart failure. It is filed as in vivo. The note with it: for diuretic properties (in words): congestive heart failure patients; for urine output increase at the end of the 60 minute infusion: congestive heart failure, 0.1 μg/kg body wt/minute; for increase of sodium excretion: human subjects with congestive heart failure. Here is the method:
Human proANF's 1-30, 31-67, 79-98, and 99-126 (i.e., ANF) were infused into human subjects with class II New York Heart Association congestive heart failure. An identical protocol to that used in example V where these peptides were infused into healthy human subjects was utilized. (See Attachment C for a detailed description of this protocol). The human subjects with congestive heart failure received an identical dose (0.1 μg/kg body wt/minute for 60 minutes) that the healthy human subjects received.

Assay [7] can be described thus: overcoming the negative ionotropic effect of Verapamil.
Assay [8] deals with particulate guanylate cyclase. The assay can be described thus: particulate guanylate cyclase activity in the kidney. It is filed as biochemical. The note with it: 1 μM; whole kidney homogenates, renal cortical and medullary membranes, isolated distal nephron.
Description: Testing is also carried out to determine biologic effects of these peptides by measuring their effects on particulate guanylate activity in the kidney.
For assay [9], the target named is particulate guanylate cyclase of porcine aorta and cultured smooth muscle cells (porcine (aorta); not stated for the cultured smooth muscle cells).
The subject of assay [10] is rat or other vertebrate species. Description: biologic effects of peptides of the rat ANF prohormone. It is filed as in vivo. To be noted: peptides of the rat sequence, in the rat or other vertebrate species. An excerpt: At first it was thought that only the C-terminus (i.e., ANF) of ANF prohormone circulated. Before any portion of the rest of the prohormone was known to circulate Dr. Frossman patented the whole rat prohormone which he called Cardiodilatin and portion(s) thereof (U.S. Pat. No. 4,751,284). In this patent Dr. Frossman patented the rat sequence of the ANF prohormone. In his patent he stated that parts of the whole prohormone had activity if the C-terminal end (i.e., ANF) was attached to it. In publications he has stated that the rest of the rat prohormone only has activity if the C-terminus (i.e., ANF with its intact ring structure) of the rat prohormone is attached to it (Frossman W.G., Contr. Nephrol. 50:1-13, 1986) (see Attachment A). Dr. Frossman has never published that other peptide(s) originating from the rat ANF prohormone that he patented have any biologic activity by themselves. Dr. Frossman has further stated on page 11 of Attachment A "I think that the 28 a.a. […] It has been over 10 years since Frossmann submitted his patent and he has never published that any portion of cardiodilatin (i.e., rat ANF prohormone) has any biologic activity if the respective portion is not attached to the ANF portion of cardiodilatin.

Setting [11] is: period A, control period (before peptide).
[12] abbreviates: period B, 1st 60min experimental period, 10 μg/kg bolus then 0.1 μg/kg/min.
The mark [13] stands for this setting: period C, 2nd 60min experimental period.

Turning to “H-NPMYNAVSNADLMDFKNLLDHLEEKMPLED-OH [proANF 1-30, H-Asn-Pro-Met-Tyr-Asn-Ala-Val-Ser-Asn-Ala-Asp-Leu-Met-Asp-Phe-Lys-Asn-Leu- Leu-Asp-His-Leu-Glu-Glu-Lys-Met-Pro-Leu-Glu-Asp-OH]”, the “cyclic GMP levels” value in assay [1] is “increase cyclic GMP levels”. The “inhibition of renal medullary Na+-K+-ATPase activity” value in [2] is on record as “Inhibition of renal medullary Na+-K+-ATPase activity”. Moreover, in [3] (setting [11]), the “UNa V, urinary sodium excretion rate” value was 36.37 ± 8.09 μeq-min^-1 -g kidney wt^-1. In addition, the “UNa V, urinary sodium excretion rate” value in assay [3] (setting [12]) was 224.30 ± 60.34 μeq-min^-1 -g kidney wt^-1. Further, the “UNa V, urinary sodium excretion rate” value in assay [3] (setting [13]) is 384.98 ± 124.39 μeq-min^-1 -g kidney wt^-1. Moreover, in assay [4], the “increase of urine flow” value is 4-12 fold; the “urine volume / urine flow (in words)” value is given as “increase in urine volume”; the “sodium excretion compared to baseline (in words)” value is “significantly (P<0.05) increased sodium excretion”; the “systolic and diastolic blood pressures” value was “decreasing systolic and diastolic blood pressures”. Also, in assay [5], the “increase in cyclic GMP levels over baseline levels” value is “four-to-five” and the vasodilation entry is given as “cause vasodilation”. In addition, in [6], the “diuretic properties (in words)” value is listed as “stronger diuretic properties than ANF”, the “urine output increase at the end of the 60 minute infusion” value is 3- to 6 fold and the “increase of sodium excretion” value is recorded as “three-to-eight”. The “negative ionotropic (slowing heartbeat) effect of Verapamil” value in assay [7] was “can overcome the negative ionotropic (slowing heartbeat) effect”. In [8], the “particulate guanylate cyclase activity” value is “enhance particulate guanylate cyclase”.

In the case of “H-SSDRSALLKSKLRALLTAPR-OH [proANF 79-98, H-Ser-Ser-Asp-Arg-Ser-Ala-Leu-Leu-Lys-Ser-Lys-Leu-Arg-Ala-Leu-Leu-Thr-Ala- Pro-Arg-OH]”, the “cyclic GMP levels” value in assay [1] was “increase cyclic GMP levels”. The “inhibition of renal medullary Na+-K+-ATPase activity” value in assay [2] is “Inhibition of renal medullary Na+-K+-ATPase activity”. Also, the “UNa V, urinary sodium excretion rate” value in assay [3] (setting [11]) is listed as 90.88 ± 77.76 μeq-min^-1 -g kidney wt^-1. For the same molecule, the “UNa V, urinary sodium excretion rate” value in assay [3] (setting [12]) is reported as 363.98 ± 261.85 μeq-min^-1 -g kidney wt^-1. Also, the “UNa V, urinary sodium excretion rate” value in assay [3] (setting [13]) was 564.22 ± 315.48 μeq-min^-1 -g kidney wt^-1. For the same molecule, in [4], the “increase of urine flow” value is 4-12 fold; the “urine volume / urine flow (in words)” value is reported as “increase in urine volume”; the “sodium excretion compared to baseline (in words)” value is reported as “each of these respective peptides except proANF 79-98 significantly (P<0.05) increased sodium excretion”; the “systolic and diastolic blood pressures” value was “decreasing systolic and diastolic blood pressures”. In [5], the “increase in cyclic GMP levels over baseline levels” value is “four-to-five” and the vasodilation entry is on record as “cause vasodilation”. Besides, in [6], the “diuretic properties (in words)” value is listed as “stronger diuretic properties than ANF”, the “urine output increase at the end of the 60 minute infusion” value is listed as 3- to 6 fold and the “increase of sodium excretion” value is “no significant increase in sodium excretion”. In addition, the “negative ionotropic (slowing heartbeat) effect of Verapamil” value in assay [7] is listed as “can overcome the negative ionotropic (slowing heartbeat) effect”. Further, in assay [8], the “particulate guanylate cyclase activity” value is “enhance particulate guanylate cyclase”.

On to “human atrial natriuretic factor (ANF) (from UniProt P01160) (peptide)”, for which, in [9], the half maximal activation (ED50) of guanylate cyclase activity was determined as 10 nM.

Regarding “rat proANF 1-30: peptide consisting of amino acids 1-30 from the rat ANF prohormone (NPVYSAVSNTDLMDFKNLLDHLEEKMPVED; UniProt P01161 25-54, looked up, fragment)”, in [10], the “biologic effect(s) (blood pressure lowering, sodium excretion or diuretic effects)” value is listed as “no biologic effect(s)”.

For “rat proANF 31-67: peptide consisting of amino acids 31-67 from the rat ANF prohormone (EVMPPQALSEQTDEAGAALSSLSEVPPWTGEVNPSQR; UniProt P01161 55-91, looked up, fragment)”, in assay [10], the “biologic effect(s) (blood pressure lowering, sodium excretion or diuretic effects)” value is listed as “no biologic effect(s)”.

Consider “rat proANF 79-98: peptide consisting of amino acids 79-98 from the rat ANF prohormone (PSDRSALLKSKLRALLAGPR; UniProt P01161 103-122, looked up, fragment)”, for which the “biologic effect(s) (blood pressure lowering, sodium excretion or diuretic effects)” value in assay [10] was “no biologic effect(s)”.

As to H-SSDRSALLKSKLRALLTAPR-OH [human pro-ANF (79-98)], the half maximal activation (ED50) of guanylate cyclase activity in assay [9] was 10 nM.
